US20130072385A1, “METHODS FOR DELAYING BUD BREAK BY APPLYING ABA ANALOGS” (priority 2011, published 2013)

What was measured:
Concord grapevines = experiment: Repeated spray of potted Concord grapevines during the bud break period; assay type: in vivo; conditions: for Average number of broken buds per vine: 1000 ppm in 0.05% Silwet L77, repeated spray
Method: A study was conducted to determine the effect of spraying Concord grapevines with ABA or ABA analog PBI-429 during bud break. Potted concord grapevines were placed in greenhouse conditions to promote bud break and the vines were repeatedly sprayed with ABA or ABA analog solutions. The vines were sprayed 2, 4, 8, 12 and 14 days after exposure of the vines into bud break promoting temperatures. Bud break was rated 6, 7, 8, 11, 12, 13, 14, 15, 19 and 20 days after vines were placed in warm bud break promoting conditions.

perennial plant = experiment: Applicants' field studies over several years on perennial plant bud break; assay type: in vivo; conditions: even at high levels, at every application time
From the text: In order to determine the role ABA had on perennial plant bud break, Applicants conducted field studies for several years. After many experiments.

Substance: (S)-5-(1-hydroxy-2,6,6)-trimethyl-4-oxo-2-cyclohexen-1-yl)-3-methyl-(2 Z,4E)-pentadienoic acid [ABA]
- Average number of broken buds per vine (Concord grapevines; 6 days after warming): 0.2
- Average number of broken buds per vine (Concord grapevines; 7 days after warming): 0.2
- Average number of broken buds per vine (Concord grapevines; 8 days after warming): 0.8
- Average number of broken buds per vine (Concord grapevines; 11 days after warming): 2.8
- Average number of broken buds per vine (Concord grapevines; 12 days after warming): 3.2
- Average number of broken buds per vine (Concord grapevines; 13 days after warming): 3.8
- Average number of broken buds per vine (Concord grapevines; 14 days after warming): 4.8
- Average number of broken buds per vine (Concord grapevines; 15 days after warming): 5.3
- Average number of broken buds per vine (Concord grapevines; 19 days after warming): 7.0
- Average number of broken buds per vine (Concord grapevines; 20 days after warming): 7.0
- Effect on average number of broken buds over time (Concord grapevines; repeated spray application during the bud break period): not significantly impacted
- Effect on bud break (perennial plant): no appreciable effect on bud break
